These results are taken from paper PMC7380166, “How to Study the Metabolism of New Psychoactive Substances for the Purpose of Toxicological Screenings—A Follow-Up Study Comparing Pooled Human Liver S9, HepaRG Cells, and Zebrafish Larvae” (Frontiers in Chemistry, 2020).

Common to all, as to set-up: key: +, detected; –: −, not detected
In one data set the target is T1, CYP1A2 (Homo sapiens, UniProt P05177).
T1 construct: purchased Corning; host or cells: baculovirus-transfected insect cell microsomes (Supersomes)
T1 sequence (P05177 1-516): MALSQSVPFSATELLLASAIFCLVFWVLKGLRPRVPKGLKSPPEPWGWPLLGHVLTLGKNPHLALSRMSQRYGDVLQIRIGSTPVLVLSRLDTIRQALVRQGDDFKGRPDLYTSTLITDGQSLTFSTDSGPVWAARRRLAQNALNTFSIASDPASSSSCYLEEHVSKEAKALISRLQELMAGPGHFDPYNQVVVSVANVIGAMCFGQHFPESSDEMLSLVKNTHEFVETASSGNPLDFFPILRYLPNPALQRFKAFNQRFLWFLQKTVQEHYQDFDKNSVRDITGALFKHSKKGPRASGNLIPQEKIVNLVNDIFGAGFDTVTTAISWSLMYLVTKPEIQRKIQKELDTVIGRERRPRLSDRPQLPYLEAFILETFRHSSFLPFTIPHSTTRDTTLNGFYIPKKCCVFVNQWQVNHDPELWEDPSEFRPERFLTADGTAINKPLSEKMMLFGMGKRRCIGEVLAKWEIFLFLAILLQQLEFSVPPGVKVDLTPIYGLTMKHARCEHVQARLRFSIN
The data set can be described thus: Monooxygenases activity screening, CYP1A2. The format is in vitro ADME. To be noted: 25 μM 4F-MDMB-BINACA, 50 pmol/ml enzyme, 30 min, 37°C, duplicate. How it is done: (§1) According to an established protocol (Wagmann et al., [2016]), the final volume per reaction tube was 50 μl with a final 4F-MDMB-BINACA concentration of 25 μM and enzyme concentrations of 50 pmol/ml for CYP1A2, CYP2A6, CYP2B6, CYP2C8, CYP2C9, CYP2C19, CYP2D6, CYP2E1, CYP3A4, and CYP3A5, respectively, or 0.25 mg protein/ml for FMO3. Furthermore, the reaction mixture contained 90 mM phosphate buffer (pH 7.4), superoxide dismutase (200 U/ml), isocitrate (5 mM), MgCl2 (5 mM), isocitrate dehydrogenase (0.5 U/ml), and NADP^+ (1.2 mM). The phosphate buffer was replaced with Tris buffer (90 mM) for incubations with CYP2A6 and CYP2C9 according to the manufacturer's recommendation. All incubations were performed at 37°C for 30 min and terminated by adding 50 μl of ice-cold acetonitrile. Afterwards, the mixtures were centrifuged at 18,407 × g for 5 min, 70 μl of the supernatants was transferred into autosampler vials, and 1 μl was injected onto the LC-HRMS/MS system. Positive control incubations were performed with pHLM (1 mg microsomal protein/ml), and negative controls without enzyme were prepared to identify non-metabolically formed compounds. All incubations were done in duplicate.

The target in a further data set is T2, CYP3A4 (Homo sapiens, UniProt P08684).
T2 construct: purchased Corning; host or cells: baculovirus-transfected insect cell microsomes (Supersomes)
The data set can be described thus: Monooxygenases activity screening, CYP3A4. It is filed as in vitro ADME. As to conditions: 25 μM 4F-MDMB-BINACA, 50 pmol/ml enzyme, 30 min, 37°C, duplicate. How it is done: as §1

Data set [1] can be described thus: Monooxygenases activity screening, pHLM positive control. It is filed as in vitro ADME, human. As to conditions: 25 μM 4F-MDMB-BINACA, 1 mg microsomal protein/ml, 30 min, 37°C, duplicate. The method, then: as §1

T2 sequence (P08684 whole entry): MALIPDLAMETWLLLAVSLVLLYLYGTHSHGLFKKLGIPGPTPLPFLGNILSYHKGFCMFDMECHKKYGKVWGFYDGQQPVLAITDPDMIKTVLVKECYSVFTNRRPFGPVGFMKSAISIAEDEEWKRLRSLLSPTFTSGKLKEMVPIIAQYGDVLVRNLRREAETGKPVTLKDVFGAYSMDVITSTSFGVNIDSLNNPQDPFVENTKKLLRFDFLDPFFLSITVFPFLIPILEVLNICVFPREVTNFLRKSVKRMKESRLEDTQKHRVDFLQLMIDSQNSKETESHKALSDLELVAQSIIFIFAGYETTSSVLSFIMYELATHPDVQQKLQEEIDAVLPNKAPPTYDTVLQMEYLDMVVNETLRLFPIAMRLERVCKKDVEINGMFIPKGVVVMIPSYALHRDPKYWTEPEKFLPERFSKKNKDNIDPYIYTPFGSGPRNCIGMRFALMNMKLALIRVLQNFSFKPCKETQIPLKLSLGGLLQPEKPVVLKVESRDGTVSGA

Turning to `CC(C)(C)C(NC(=O)c1nn(CCCCF)c2ccccc12)C(=O)O` (stereo not drawn) [MB8], at CYP1A2, the “Detection of metabolite in incubation with CYP1A2” value (shortened to “Detection … with CYP1A2”) is on record as “–”. In addition, the “Detection of metabolite in incubation with CYP3A4” value (shortened to “Detection … with CYP3A4”) on CYP3A4 is reported as “–”. Further, in data set [1], the “Detection of metabolite in incubation with pHLM” value (shortened to “Detection … with pHLM”) is on record as “+”.
For the molecule `O=C(O)c1nn(CCCCF)c2ccccc12` [MB1], the “Detection … with CYP1A2” value at CYP1A2 is on record as “–”. The “Detection … with CYP3A4” value at CYP3A4 was “–”. Moreover, the “Detection … with pHLM” value in data set [1] was “+”.
For `COC(=O)[C@@H](NC(=O)c1nn(CCCCF)c2ccccc12)C(C)(C)CO` [MB16], the “Detection … with CYP1A2” value on CYP1A2 is “–”. For the same molecule, at CYP3A4, the “Detection … with CYP3A4” value is recorded as “–”. In data set [1], the “Detection … with pHLM” value is listed as “+”.
`COC(=O)[C@@H](NC(=O)c1n[nH]c2ccccc12)C(C)(C)C` [MB4]: the “Detection … with CYP1A2” value at CYP1A2 is on record as “+”. For the same molecule, on CYP3A4, the “Detection … with CYP3A4” value is reported as “+”. Further, the “Detection … with pHLM” value in data set [1] was “+”.
For `COC(=O)[C@@H](NC(=O)c1nn(CCCCO)c2ccccc12)C(C)(C)C` [MB11], the “Detection … with CYP1A2” value on CYP1A2 was “–”. For the same molecule, the “Detection … with CYP3A4” value at CYP3A4 is given as “–”. The “Detection … with pHLM” value in data set [1] is listed as “+”.
